According to article PMC11680164 (Viruses, 2024):

Experiments:
[1] = Pharmacokinetics (plasma and lung) after single oral dose in mice; assay type: in vivo, Swiss Webster mice; conditions: 60 mg/kg p.o. single dose
[2] = cited from earlier work
[3] = Swiss Webster, mouse, po, plasma

COC(=O)N[C@H](C(=O)N1CCC[C@H]1c1nc(-c2ccc(-c3ccc(-c4c[nH]c([C@@H]5CCCN5C(=O)[C@@H](NC(=O)OC)C(C)C)n4)cc3)cc2)c[nH]1)C(C)C [daclatasvir]
AUC in plasma relative to lungs [1]: ~5.9 fold
Cmax ([1]; Swiss Webster, mouse, po, lung): 6190 ng/g
Tmax ([1]; Swiss Webster, mouse, po, lung): 0.67 h
half-life ([1]; Swiss Webster, mouse, po, lung): 14.7 h
AUC(0-inf) [1, 3]: 103 µg·h/mL
AUC(0-t) [1, 3]: 101 µg·h/mL
Cmax [1, 3]: 22200 ng/mL
Tmax [1, 3]: 1 h
half-life [1, 3]: 2.25 h
AUClast ([1]; lung): 16,932 h.ng/g
AUC∞ ([1]; lung): 19,123 h.ng/g
Ct (last concentration observed above the limit of quantification) ([1]; lung): 103.46 ng/g
Tlast ([1]; lung): 16.00 h
λ (apparent elimination constant) ([1]; lung): 0.0472 h*^−1
Ct (last concentration observed above the limit of quantification) ([1]; plasma): 353.84 ng/mL
Tlast ([1]; plasma): 16.00 h
λ (apparent elimination constant) ([1]; plasma): 0.308 h*^−1
no-observable-effect level (NOEL) ([2]; nonhuman primates treated daily for 4–9 months): 15 mg/kg
tolerated dose ([2]; nonhuman primates): 15 mg/kg
